Experiments:
[1] = tested on: rats with subtotally (5/6) nephrectomy; experiment: Antiproteinuric action in rats with subtotally (5/6) nephrectomy (focal glomerulosclerosis model); type: in vivo
Description: Antiproteinuric action in rats with subtotally (5/6) nephrectomy (focal glomerulorsclerosis model; Meyer, T. W. and Renake, H. G.: Am. J. Physiol. 254, F856 (1988) or Yoshioka, T., Shiraga, H., Yoshida, Y., Fogo. A., Glick, A. D.: J. Clin. Invest. 82, 1614 (1988)) Compound 1: (±)-1-(cyclohexyloxycarbonyloxy)ethyl 2-ethoxy-1-[[2′-(1H-tetrazole-5-yl)biphenyl-4-yl]methyl]-1H-benzmidazole-7-carboxylate Method: Five-week-old male rats were anesthetized by intraperitoneal injection of pentobarbital sodium and ⅔ of the right kidney was removed. One week later, the entire left kidney was removed under similar anesthesia. After two-week breeding, 24-hour urine was collected and the total protein content and albumin content in the urine were determined by the use of A/G-B test (Wako Pure Chemistry Co., Ltd.). On the basis of urinary protein and blood pressure (BP), the rats were divided into two groups (vehicle-treated rats and rats treated with 1 mg/kg/day, p.o. of compound 1). Rats undergoing nephrectomy of the left kidney alone were also used as sham operated rats. Compound 1 was suspended in gum-arabic and the suspension was orally administered once a day for eight weeks. At the 2nd, 4th, 6th and 8th week of the treatment, 24-hour urine was collected. Results: Table 1 summarizes the results. Urinary total protein and albumin began to markedly increase in vehicle-treated rats two weeks after surgery. […] Since compound 1 suppresses aggravation of renal impairment, its efficacy in glomerulonephritis or diabetic nephropathy is expected.

Wistar fatty rats = experiment: Antiproteinuric action in rats with non-insulin-dependent diabetes (Wistar fatty rats); type: in vivo
Description: Antiproteinuric action in rats with non-insulin-dependent (NIDD) diabetes (Wistar fatty rats) (Ikeda, H., Shino, A., Matsuo, T., Iwatsuka, H., and Suzuoki, Z.: Diabetes, 30, 1045 (1981) or Kava, R. A., West, D. B., Lukasik, V. A., and Greenwood, M. R. C: Diabetes, 38,159 (1989) Compound 1: (±)-1-(cyclohexyloxycarbonyloxy)ethyl 2-ethoxy-1-[[2′-(1H-tetrazole-5-yl)biphenyl-4-yl]methyl]-1H-benzimidazole-7-carboxylate Method: On the basis of blood glucose level and urinary protein content, 11-week-old Wistar fatty rats were divided into two groups (vehicle-treated rats and rats treated with 1 mg/kg/day, p.o. of compound 1). Non-diabetic control rats (lean rats) were also used. Compound 1 was suspended in gum-arabic and the suspension was orally administered once a day for ten weeks. At the 2nd, 4th, 6th, 8th and 10th week of the treatment, 24 hour urine was collected. The urine was centrifuged at 3,000 rpm and a portion of the supernatant was desalted on a column (Pharmacia PD10). Urinary total protein content and albumin content were determined by Lowry and ELISA methods, respectively. Results: Table 2 summarizes the results. Urinary total protein content increased in vehicle-treated rats to about three times of the value in lean rats. This increase, however, was reduced to 1.2-1.5 times by the-treatment with compound 1. […] This increase, however, was reduced to 20-30 times by the treatment with compound 1. […] In non-insulin-dependent diabetic models, compound 1 is expected to be effective against diabetic nephropathy by decreasing the urinary protein without affecting the blood glucose level.

in vivo = conditions: both sexes, po
Protocol: Acute Toxicity Test Compound 1: (±)-1-(cyclohexyloxycarbonyloxy)ethyl 2-ethoxy-1-[[2′-(1H-tetrazole-5-yl)biphenyl-4-yl]methyl]-1H-benzimidazole-7-carboxylate The LD50 of compound 1 is 2,000 mg/kg or more for 4-week-old Jcl:ICR mice (males and females) and for 5-week-old Jcl:Wister rats (males and females) via single oral administration.

[2] = 2 weeks after the first dose, 1 mg/kg/day p.o., mean ± standard error
[3] = 4 weeks after the first dose, 1 mg/kg/day p.o., mean ± standard error
[4] = 6 weeks after the first dose, 1 mg/kg/day p.o., mean ± standard error
[5] = 8 weeks after the first dose, 1 mg/kg/day p.o., mean ± standard error
[6] = Preadministration (baseline), 5/6 nephrectomized rats, n = 9, mean ± standard error
[7] = age 11 weeks (start of treatment, baseline), Wistar fatty rats, n = 6, mean ± standard error
[8] = age 13 weeks, 1 mg/kg/day p.o., mean ± standard error
[9] = age 15 weeks, 1 mg/kg/day p.o., mean ± standard error
[10] = age 17 weeks, 1 mg/kg/day p.o., mean ± standard error
[11] = age 19 weeks, 1 mg/kg/day p.o., mean ± standard error
[12] = age 21 weeks, 1 mg/kg/day p.o., mean ± standard error

Question: With `CCOc1nc2cccc(C(=O)OC(C)OC(=O)OC3CCCCC3)c2n1Cc1ccc(-c2ccccc2-c2nnn[nH]2)cc1` (racemic) [Compound 1, (±)-1-(cyclohexyloxycarbonyloxy)ethyl 2-ethoxy-1-[[2′-(1H-tetrazole-5-yl)biphenyl-4-yl]methyl]-1H-benzimidazole-7-carboxylate] as the compound, how does the Urinary albumin [1, 2] read?
Answer: 6.3 ± 2.9 mg/100 g/24 hr

Question: And the Urinary total protein [1, 2]?
Answer: 30.9 ± 5.2 mg/100 g/24 hr

Question: What about the Urinary albumin [1, 3] of the same compound?
Answer: 6.8 ± 3.4 mg/100 g/24 hr

Question: What about the Urinary total protein [1, 3] of the same compound?
Answer: 27.7 ± 4.0 mg/100 g/24 hr

Question: And the “Urinary total protein and albumin (course versus vehicle-treated rats)” value ([1]; 5/6 nephrectomized rats, 1 mg/kg/day p.o. for eight weeks)?
Answer: these parameters did not increase

Question: What about the Urinary albumin [1, 4] of the same compound?
Answer: 7.4 ± 4.0 mg/100 g/24 hr

Question: And the Urinary total protein [1, 4]?
Answer: 17.6 ± 5.6 mg/100 g/24 hr

Question: What about the Urinary albumin [1, 5] of the same compound?
Answer: 5.6 ± 2.7 mg/100 g/24 hr

Question: What about the Urinary total protein [1, 5] of the same compound?
Answer: 24.4 ± 2.7 mg/100 g/24 hr

Question: What about the Urinary albumin [1, 6] of the same compound?
Answer: 7.3 ± 2.3 mg/100 g/24 hr

Question: What about the Urinary total protein [1, 6] of the same compound?
Answer: 32.8 ± 5.4 mg/100 g/24 hr

Question: And the “Effect on blood glucose level” value (Wistar fatty rats; Wistar fatty rats, 1 mg/kg/day p.o.)?
Answer: did not affect blood glucose level

Question: What about the “Urinary albumin content relative to the value in lean rats” value (Wistar fatty rats; Wistar fatty rats, 1 mg/kg/day p.o., vehicle-treated about 100 times) of the same compound?
Answer: 20-30 times

Question: And the “Urinary total protein content relative to the value in lean rats” value (Wistar fatty rats; Wistar fatty rats, 1 mg/kg/day p.o., vehicle-treated about three times)?
Answer: 1.2-1.5 times

Question: And the Urinary albumin (Wistar fatty rats; [7])?
Answer: 6.5 ± 0.4 mg/24 hr

Question: What about the Urinary total protein (Wistar fatty rats; [7]) of the same compound?
Answer: 101 ± 6 mg/24 hr

Question: And the Urinary albumin (Wistar fatty rats; [8])?
Answer: 11.2 ± 3.9 mg/24 hr

Question: What about the Urinary total protein (Wistar fatty rats; [8]) of the same compound?
Answer: 69 ± 11 mg/24 hr

Question: And the Urinary albumin (Wistar fatty rats; [9])?
Answer: 14.8 ± 6.1 mg/24 hr

Question: What about the Urinary total protein (Wistar fatty rats; [9]) of the same compound?
Answer: 91 ± 12 mg/24 hr

Question: And the Urinary albumin (Wistar fatty rats; [10])?
Answer: 21.8 ± 8.2 mg/24 hr

Question: And the Urinary total protein (Wistar fatty rats; [10])?
Answer: 97 ± 11 mg/24 hr

Question: What about the Urinary albumin (Wistar fatty rats; [11]) of the same compound?
Answer: 10.7 ± 3.9 mg/24 hr

Question: And the Urinary total protein (Wistar fatty rats; [11])?
Answer: 79 ± 10 mg/24 hr

Question: And the Urinary albumin (Wistar fatty rats; [12])?
Answer: 15.4 ± 3.7 mg/24 hr

Question: And the Urinary total protein (Wistar fatty rats; [12])?
Answer: 74 ± 13 mg/24 hr

Question: What about the LD50 (in vivo; Jcl:ICR, mouse) of the same compound?
Answer: ≥ 2000 mg/kg

Question: What about the LD50 (in vivo; Jcl:Wister, rat) of the same compound?
Answer: ≥ 2000 mg/kg

Source: patent US6469037B2, “Prophylactic or therapeutic drug for renal diseases” (Takeda Chemical Industries, Ltd., priority 1993, dated 2002)
